Assay results reported in patent US20250368699A1, “ARTHROPOD CHEMOSENSORY RECEPTORS AND USES THEREOF” (Firmenich Incorporated, priority 2022, published 2025).
pEC50: −log10 of the molar value. Like-named read-outs stand apart in the source and are kept apart here.

Molecular target: AaORCO+AaOR8 receptors (Aedes aegypti, UniProt A0A1S4FVR6)
Assay: Automatic planar patch-clamp electrophysiology in U2OS cells co-transduced with AaORCO and AaOR8
Format: cell-based
Protocol: In this example, U2OS cells were co-transduced with AaORCO and AaOR8 channel subunits overnight and stimulated with increasing concentrations of 1-octen-3-ol ligand in the absence and presence of 10 μM VUAA1.
Cell culture and transduction. U2OS and HEK293 cells were grown on T150 flasks with Dulbecco's modified eagle medium supplemented with 10% fetal bovine serum and 1% Penicillin/Streptomycin in a 37° C. incubator under a 5% CO2 atmosphere. For transductions, cell cultures were pooled at 1.5×10^6 cell/ml, centrifuged at 1000 xg for 5 min, and resuspended in fresh medium. Resuspended cultures were inoculated at a multiplicity of 1-20 pfu/cell with baculovirus encoding AaORCO or AaORCO with AaOR8, AaOR2 or AaOR11 and AgORCO with AgOR8 or AgOR2. A further untransduced culture was used as a control. Cultures were maintained in an incubator at 37° C. and used for electrophysiology or FLIPR measurements 1-4 days after infection.
Planar Patch Clamp Electrophysiology Assay. […] On the day of the assay, the cells were lifted, washed once in PBS and loaded on a Nanion Synchropatch384 instrument and currents were recorded using voltage clamp in standard whole-cell configuration at-90 mV on an 8-hole version chip (NPC-384T).

Chain of AaORCO+AaOR8 receptors (Q178U6 whole entry): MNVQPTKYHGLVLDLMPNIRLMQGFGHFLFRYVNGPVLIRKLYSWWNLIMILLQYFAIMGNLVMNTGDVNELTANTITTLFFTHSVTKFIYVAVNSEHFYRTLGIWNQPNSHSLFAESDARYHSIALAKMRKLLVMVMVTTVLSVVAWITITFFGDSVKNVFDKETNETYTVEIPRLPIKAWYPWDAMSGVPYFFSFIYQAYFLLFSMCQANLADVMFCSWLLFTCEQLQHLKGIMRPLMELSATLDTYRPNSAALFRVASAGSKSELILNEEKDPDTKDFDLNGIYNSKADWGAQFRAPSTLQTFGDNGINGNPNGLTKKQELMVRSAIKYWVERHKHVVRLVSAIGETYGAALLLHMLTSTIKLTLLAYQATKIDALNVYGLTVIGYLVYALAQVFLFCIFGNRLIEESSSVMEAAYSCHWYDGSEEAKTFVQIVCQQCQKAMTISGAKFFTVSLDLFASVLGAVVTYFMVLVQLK
Chain of AaORCO+AaOR8 receptors (A0A1S4FVR6 entry or part of it): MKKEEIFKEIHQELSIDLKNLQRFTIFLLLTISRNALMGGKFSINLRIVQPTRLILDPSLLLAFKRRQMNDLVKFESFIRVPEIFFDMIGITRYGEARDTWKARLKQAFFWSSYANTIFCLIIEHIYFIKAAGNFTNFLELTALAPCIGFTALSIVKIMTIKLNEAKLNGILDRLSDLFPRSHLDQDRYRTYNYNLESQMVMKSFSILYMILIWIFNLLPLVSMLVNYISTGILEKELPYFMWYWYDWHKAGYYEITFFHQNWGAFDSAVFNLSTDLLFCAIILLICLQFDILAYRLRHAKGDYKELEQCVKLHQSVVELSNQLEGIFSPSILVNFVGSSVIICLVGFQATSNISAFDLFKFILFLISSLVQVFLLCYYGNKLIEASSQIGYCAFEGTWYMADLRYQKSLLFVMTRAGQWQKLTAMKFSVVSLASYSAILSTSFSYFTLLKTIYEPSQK

- pEC50 (absence of VUAA1, read-out: EC50, dose-dependent activation of AaORCO+AaOR8 channel currents): 6.27
- pEC50 (presence of 10 μM VUAA1, read-out: EC50, activation of AaORCO+AaOR8 channel currents in the presence of VUAA1 (left-shift)): 7.00
SMILES: C=CC(O)CCCCC (centres unmarked) [1-octen-3-ol]
